# Results published in patent publication US20050233361A1, “PPARdelta assay” (priority 2004, published 2005).
# What was measured:
# ANGPTL4 gene expression [1] = assay: ANGPTL4 gene expression in C2C12 cells by qPCR; assay type: cell-based; details: C2C12 mouse muscle cells, S12 reference, vs control = 1
# Procedure: The culturing of the C2C12 mouse muscle cells, RNA extraction, cDNA synthesis and purifications were performed as described in Example 1.
# RT-PCR was performed with the Quantitech SYBR Green kit from Qiagen according to the manufacturer's manual. Each component were added to 96 well plate: 25 μl master mix, 0.16 μl of each primer (100 μM stock solution), 22.7 μl H2O and 2 μl cDNA.
# The program consists of three different steps: initial denaturation of template and heat-activation of the Taq DNA polymerase (95° C., 15 min), cycling (95° C. denaturation, 60° C. primer-template annealing, 72° C. elongation, fluorescence aquisition), and final melting (melting curve 55 to 95° C., measurements in 0.5° C. steps).
# The relative quantification is based on the relative expression of the target gene versus a reference gene. […] The cycle number at which threshold fluorescence is reached, is called ct value. […] The relative ct value of a target gene compared to the ct value of an internal reference in the control or untreated sample is expressed as Δct.control=ctreference of control−cttarget of control and in a treated, unknown sample as Δct.sample=ctreference of sample−cttarget of sample.
# As internal reference for quantitative studies the ribosomal protein S12 gene expression was used. […] Setting of fluorescence threshold is determined by the light cycler software. The obtained ct values (duplicates for one sample, two samples per condition) were exported into Microsoft Excel and analyzed as described above.
# ANGPTL4 gene expression [2] = assay: ANGPTL4 gene expression in C2C12 cells by Affymetrix micro-arrays; assay type: cell-based; details: C2C12 mouse muscle cells, 20 hours, vs control = 1.00
# Procedure: Cell culture: C2C12 cells (ATCC: CRL1772)
# Cells were cultured in DMEM (5 mM glucose) supplemented with 10% heat-inactivated fetal calf serum (FCS). Complete medium was filtered through 0.2 μm pores before use. Differentiation was performed in 6 well dishes by serum depleting the medium (DMEM High Glucose, 2% FCS) when cells reach confluency. Cell cultures were then incubated for 5 days at 37° C. in a 90%-humidified and 95%-air-5%-CO2 sterile atmosphere to allow differentiation.
# PPAR Ligands were dissolved in 100% DMSO and added to medium to adjust 0.1% (v/v) DMSO final concentration and cells were incubated with ligands for 20 hours under normal growth conditions. Three replicates were done for each condition.
# RNA extraction procedure has been performed with Qiagen QIAschredder and RNeasy kits.
# Approximately 1*106 pelleted cells per sample were resuspended in 350 μl guanidine thiocyanate containing RLT. Samples were loaded on a QIAshredder-column and centrifuged at full speed for 2 minutes to homogenize the lysates. After adding 350 μl ethanol to the flow-through for better binding conditions, samples were applied to RNeasy spin. For the first wash step 350 μl RW1 buffer were pipeted into the column. Then 10 μL DNase solution gently mixed with 70 μl RDD buffer were applied onto the column and incubated for 15 minutes at room temperature to remove genomic DNA. […]
SMILES,ANGPTL4 gene expression fold changes (ANGPTL4 gene expression [1]; 500 nM) [fold],ANGPTL4 gene expression fold changes (ANGPTL4 gene expression [2]; 500 nM) [fold],ANGPTL4 gene expression fold changes (ANGPTL4 gene expression [1]; 300 μM) [fold],ANGPTL4 gene expression fold changes (ANGPTL4 gene expression [2]; 300 μM) [fold]
"Cc1nc(-c2ccc(C(F)(F)F)cc2)sc1C(Sc1ccc(OCC(=O)O)c2ccccc12)C1CCCC1 (racemic) [C, [rac]-(4-{Cyclopentyl-[4-methyl-2-(4-trifluoromethyl-penyl)-thiazol-5-yl]-methylsulfanyl}-naphtalen-1-yloxy}-acetic]",10.06,8.87,–,–
"CC(C)(Oc1ccc(C(=O)c2ccc(Cl)cc2)cc1)C(=O)O [A, 2-[4-(4-Chlorobenzoyl)-phenoxy]-2-methylpropanoic acid]",–,–,2.61,1.99
"Cc1cc(N(C)Cc2sc(-c3ccc(C(F)(F)F)cc3)nc2C)ccc1OCC(=O)O [D, (2-Methyl-4-{Methyl-[4-methyl-2-(4-trifluoromethyl-phenyl)-thiazol-5-ylmethyl]-amino}-phenoxy)-acetic acid]",13.51,–,–,–
